Tests used:
HIV-1 [1] = assay: Cell-based inhibition assay in transfected COS-1 cells, ELISA p24 capture assay of tissue culture media; details: K21 100 μM, N20 20 μM, 24-hr treatment
Description: COS-1 cells were seeded on twelve-well plates and grown in 1 ml of DMEM with 10% fbs and 1% Penicillin/Streptomycin. The following day, well were confluency was ˜60% were selected for co-transfection with an NL4-3 derived construct (pdeltaEnv) and pIIIEnv for expression of HIV-1 virus-encoded proteins. Inhibitor treatment was done on two sets of transfected cells: one, at 5 hr post-transfection and the other, at 24 hours post-transfection. In each case, the tissue culture media was removed and replaced with treatment Nedd4 inhibitor (100 μM final concentration for K21 and 20 μM final concentration for N20) or DMSO control (1% final concentration) in DMEM with 10% FBS, 1% Penicillin/Streptomycin, 5 mM MgCl2, and 0.5 mM CaCl2. After a 24-hr treatment period, the tissue culture media was collected, cleared of debris by running through a 0.45 um syringe filter and analyzed for amount of virus particles by Elisa p24 capture assay.
At 100 μM, K21 was inhibitory to virus particle release. […] This was true whether the inhibitor was added at 5 hrs post-transfection or at 24 hrs post transfection. At 20 μM, N20 was also exerted an inhibitory effect on virus particle release but it was different from that of K21.

[2] = test system: ASLV virus like particles (VLPs); assay: ASLV VLP release from 293 cells, Western blot with anti-ASLV Gag antibody; assay type: cell-based; details: FIG. 6A, compared with untreated cells
Description: 293/E cells were cultured in DMEM supplemented with 10% fetal bovine serum, penicillin (1,000 units/ml), and streptomycin (1,000 μg/ml) to 50% confluence at 37° C. Expression of plasmids from p2036 was high in 293/E cells because these cells stably express the EBNA1 protein of EBV and the p2036 constructs contain the EBV FR plasmid maintenance element that EBNA 1 binds. Therefore 293/E cells were used when proteins expressed from p2036 were to be detected by western analysis. In all experiments, 24-well plates of 293/E cells were transfected with 0.5 μg of p2036-ASLV Gag with the X-treme Gene9 transfection reagent (Roche Diagnostics, Alameda, Calif., USA) according to the manufacturer's instructions. After 24 h after DNA transfection, the cells were washed with 1×DPS that contained CaCl2 (0.1 mM) and MgCl2 (1 mM) [Gibco #14040-133], and 1 ml of cell culture medium (10% FBS, 1% Penicillin/Streptomycin) containing CaCl2 (0.5 mM) and MgCl2 (5 mM) was added. […]
For the budding assay, both media and cell lysate fractions were collected. […] After blocking of the membrane with wash buffer (10 mM Tris-HCl, pH 8.0, 150 mM NaCl, and 0.1% Tween 20) containing 5% nonfat dry milk, ASLV Gag proteins were detected with an AMV MA (p19) directed monoclonal antibody (mAb) and an anti-mouse IgG-HRP secondary antibody for ECL (Denville Scientific; Metuchen, N.J.).

HIV-1 [3] = assay: Specific infectivity by MAGI assay; assay type: cell-based; details: versus DMSO controls
Description: The amount of infectious virus normalized to ng of p24 obtained from the ELISA assay in the tissue cultures was determined by multinuclear activation of a galactosidase indicator (MAGI) assay. In this assay, infectious unit is scored by the blue color that is assumed by infected MAGI cells (Hela cells that have been engineered to express the indicator when the infecting particle is able to simulated natural infection up until expression of HIV-1 Tat).

COS-1 cells = assay: Cell growth based on cell lysate actin levels (Western); details: versus DMSO-treated
Description: The levels of actin of cell lysates prepared from DMSO-treated, […]-treated and N20-treated cells were determined by SDS-PAGE followed by Western analysis where the immunoblot were probed with mouse anti-actin antibody.

HIV-1 [4] = assay: HIV-1 release from T-cells in culture, HIV-1 CA protein in media by ELISA; details: T cells contacted with compound then infected with HIV-1
Description: These compounds were further evaluated as antiviral inhibitors of virus budding and release using the methods disclosed herein.

[5] = inhibitor added 5 hrs post-transfection
[6] = inhibitor added 24 hrs post-transfection

Row | Compound | Amount of virus particle detected in tissue culture media (HIV-1 [1]; [5]) | Amount of virus particle detected in tissue culture media (HIV-1 [1]; [6]) | Release of ASLV VLPs from cells [2] | Counts of blue cells per ng p24 (specific infectivity) (HIV-1 [3]) | Intensity of actin bands of cell lysates (COS-1 cells) | HIV-1 particle release (in words) (HIV-1 [4])
1 | CN(C)[C@@H]1C(O)=C(C(N)=O)C(=O)[C@@]2(O)C(=O)C3=C(O)c4c(O)cccc4[C@@](C)(O)[C@H]3[C@H](O)[C@@H]12 [Oxytetracycline, (4S,4aR,5S,5aR,6S,12aS)-4-(dimethylamino)-3,5,6,10,11,12a-hexahydroxy-6-methyl-1,12-dioxo-1,4,4a,5,5a,6,12,12a-octahydrotetracene-2-carboxamide] | reduction in the amount of virus particle detected | reduction was not seen | budding defect | comparable | essentially comparable for all samples | significant reduction in HIV-1 particle release
2 | Cl.NC(CO)C(=O)NNCc1ccc(O)c(O)c1O (racemic) [Benserazide Hydrochloride, (RS)-2-amino-3-hydroxy-N′-(2,3,4-trihydroxybenzyl) propanehydrazide hydrochloride] | reduction in the amount of virus particle detected | reduction in the amount of virus particle detected | budding defect | comparable | essentially comparable for all samples | significant reduction in HIV-1 particle release

From US10765687B2, “Methods and compounds to inhibit enveloped virus release” (Northwestern University, priority 2012, dated 2020)
